Assay results reported in patent US10336762B2 (priority 2017, dated 2019).
Read-outs that look alike come from different tables or passages of the source.

How the values were obtained:
[1] = molecular target: IRAK4 enzyme (Homo sapiens (Human), UniProt Q9NWZ3); test: biochemical; format: biochemical
[2] = test system: TNFα; test: cells; format: cell-based, human; settings: read-out: EC50 TNF
[3] = IRAK4 enzyme, TR-FRET, 500 μM ATP
[4] = Homo sapiens, Monocyte, LPS-stimulated human monocytes, TNFα content
[5] = IRAK4 enzyme, TR-FRET (HTRF), 500 μM ATP
[6] = Homo sapiens, Monocyte, LPS-stimulated human monocytes, TNFα by TR-FRET

Chain of IRAK4 enzyme (Q9NWZ3 whole entry): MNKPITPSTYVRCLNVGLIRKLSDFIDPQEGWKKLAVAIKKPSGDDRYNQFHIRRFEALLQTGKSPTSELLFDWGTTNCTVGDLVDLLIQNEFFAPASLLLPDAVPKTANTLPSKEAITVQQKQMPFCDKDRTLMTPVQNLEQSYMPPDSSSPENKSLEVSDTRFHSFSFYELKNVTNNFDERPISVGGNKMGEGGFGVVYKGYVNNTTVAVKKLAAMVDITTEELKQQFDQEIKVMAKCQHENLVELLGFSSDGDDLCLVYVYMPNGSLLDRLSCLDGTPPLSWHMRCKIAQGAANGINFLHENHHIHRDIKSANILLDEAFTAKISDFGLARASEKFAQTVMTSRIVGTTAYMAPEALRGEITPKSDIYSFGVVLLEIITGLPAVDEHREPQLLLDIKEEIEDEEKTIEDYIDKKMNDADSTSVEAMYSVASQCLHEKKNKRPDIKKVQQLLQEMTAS

| SMILES | IC50 [1, 3] [nM] | EC50 [2, 4] [nM] | IC50 [1, 5] [nM] | also measured |
| --- | --- | --- | --- | --- |
| CC(C)(O)[C@H](F)CNC(=O)c1cnc(-c2ccc3cc(C#N)cnn23)cc1NC1CS(=O)(=O)C1 [Example 77, (R)-6-(3-cyanopyrrolo[1,2-b]pyridazin-7-yl)-4-((1,1-dioxidothietan-3-yl)amino)-N-(2-fluoro-3-hydroxy-3-methylbutyl)nicotinamide] | 2 | 352 |  |  |
| CC(C)(O)[C@H](F)CNC(=O)c1cnc(-c2ccc3cc(C#N)cnn23)cc1Nc1ccc2c(N)n[nH]c2c1 [Example 647, (R)-4-((3-amino-1H-indazol-6-yl)amino)-6-(3-cyanopyrrolo[1,2-b]pyridazin-7-yl)-N-(2-fluoro-3-hydroxy-3-methyl-butyl)nicotinamide] |  | 48 | < 1 |  |
| CC(C)(O)[C@H](F)CNC(=O)c1cnc(-c2ccc3cc(C#N)cnn23)cc1Nc1ccc2oc(=O)[nH]c2c1 [Example 568, (R)-6-(3-cyanopyrrolo[1,2-b]pyridazin-7-yl)-N-(2-fluoro-3-hydroxy-3-methylbutyl)-4-((2-oxo-2,3-dihydrobenzo[d]oxazol-5-yl)amino)nicotinamide] |  | 214 | < 1 |  |
| CC(C)(O)[C@H](F)CNC(=O)c1cnc(-c2ccc3cc(C#N)cnn23)cc1NC1CC1CO (single isomer, unassigned) [Example 302] | 1 | 61 |  |  |
| Cn1cncc1CNC(=O)c1cnc(-c2ccc3cc(C#N)cnn23)cc1NC12CCC(O)(CC1)CC2 [Example 925, 6-(3-cyanopyrrolo[1,2-b]pyridazin-7-yl)-4-((4-hydroxybicyclo[2.2.2]octan-1-yl)amino)-N-((1-methyl-1H-imidazol-5-yl)methyl)nicotinamide] | 4 |  |  | EC50 [2, 6]: 583 nM |
| CC(C)Nc1cc(-c2ccc3cc(C#N)cnn23)ncc1C(=O)N[C@@H]1CCC[C@@H](O)C1 [Example 192, 6-(3-cyanopyrrolo[1,2-b]pyridazin-7-yl)-N-((1R,3R)-3-hydroxycyclohexyl)-4-(isopropylamino) nicotinamide] | 5 | 157 |  |  |
| N#Cc1cnn2c(-c3cc(NC45CCC(O)(CC4)CC5)c(C(=O)NCC(=O)N4CCN(C5COC5)CC4)cn3)ccc2c1 [Example 796, 6-(3-cyanopyrrolo[1,2-b]pyridazin-7-yl)-4-((4-hydroxybicyclo[2.2.2]octan-1-yl)amino)-N-(2-(4-(oxetan-3-yl)piperazin-1-yl)-2-oxoethyl)nicotinamide] |  | 75 | 2 |  |
| Cc1cc(Nc2cc(-c3ccc4cc(C#N)cnn34)ncc2C(=O)NC[C@@H](F)C(C)(C)O)ccc1C#N [Example 583, (R)-4-((4-cyano-3-methylphenyl)amino)-6-(3-cyanopyrrolo[1,2-b]pyridazin-7-yl)-N-(2-fluoro-3-hydroxy-3-methylbutyl)nicotinamide] |  | 140 | 2 |  |
| CC(C)(O)[C@H](F)CNC(=O)c1cnc(-c2ccc3cc(C#N)cnn23)cc1N[C@H]1C[C@@H](CO)C1 [Example 730] |  | 40 | < 1 |  |
| CC(C)(O)[C@H](F)CNC(=O)c1cnc(-c2ccc3cc(C#N)cnn23)cc1Nc1ccc2c(c1)CC(=O)N2 [Example 650, (R)-6-(3-cyanopyrrolo[1,2-b]pyridazin-7-yl)-N-(2-fluoro-3-hydroxy-3-methylbutyl)-4-((2-oxo-indolin-5-yl)amino) nicotinamide] |  | 16 | < 1 |  |
| CC(C)(O)[C@H](F)CNC(=O)c1cnc(-c2ccc3cc(C#N)cnn23)cc1Nc1ccn(Cc2ccccc2)n1 [Example 370, (R)-4-((1-benzyl-1H-pyrazol-3-yl)amino)-6-(3-cyanopyrrolo[1,2-b]pyridazin-7-yl)-N-(2-fluoro-3-hydroxy-3-methylbutyl)nicotinamide] | 1 | 10 |  |  |
| CC(C)(O)[C@H](F)CNC(=O)c1cnc(-c2ccc3cc(C#N)cnn23)cc1NC1CC2(CCN2CC(F)(F)F)C1 (stereo partly drawn) [Example 913, 6-(3-cyanopyrrolo[1,2-b]pyridazin-7-yl)-N-((R)-2-fluoro-3-hydroxy-3-methylbutyl)-4-(((4R,6s)-1-(2,2,2-trifluoroethyl)-1-azaspiro[3.3]heptan-6-yl)amino)nicotinamide] | 3 |  |  | EC50 ([2]; LPS-stimulated human monocytes, TNFα by TR-FRET): 226 nM |
| CC(C)(O)[C@H](F)CNC(=O)c1cnc(-c2ccc3cc(C#N)cnn23)cc1Nc1ccc2[nH]ncc2c1 [Example 577, (R)-4-((1H-indazol-5-yl)amino)-6-(3-cyano-pyrrolo[1,2-b]pyridazin-7-yl)-N-(2-fluoro-3-hydroxy-3-methylbutyl) nicotinamide] |  | 30 | < 1 |  |
| CC(C)(O)[C@H](F)CNC(=O)c1cnc(-c2ccc3cc(C#N)cnn23)cc1Nc1ccc(N2CC3(COC3)C2)nc1 [Example 684, (R)-4-((6-(2-oxa-6-azaspiro[3.3]heptan-6-yl)pyridin-3-yl)amino)-6-(3-cyanopyrrolo[1,2-b]pyridazin-7-yl)-N-(2-fluoro-3-hydroxy-3-methylbutyl)nicotinamide] |  | 89 | 1 |  |
| COC(=O)N1CC[C@H]1CNc1cc(-c2ccc3cc(C#N)cnn23)ncc1C(=O)NC[C@@H](F)C(C)(C)O [Example 890, (S)-methyl 2-(((2-(3-cyanopyrrolo[1,2-b]pyridazin-7-yl)-5-(((R)-2-fluoro-3-hydroxy-3-methylbutyl)carbamoyl)pyridin-4-yl)amino)methyl)azetidine-1-carboxylate] | 14 |  |  | EC50 [2, 6]: 357 nM |
| CC(C)(O)[C@H](F)CNC(=O)c1cnc(-c2ccc3cc(C#N)cnn23)cc1N[C@H]1CC[C@H](NCC(F)(F)F)CC1 [Example 289, 6-(3-cyanopyrrolo[1,2-b]pyridazin-7-yl)-N-((R)-2-fluoro-3-hydroxy-3-methylbutyl)-4-(((1r,4R)-4-((2,2,2-trifluoroethyl)amino)cyclohexyl)amino)nicotinamide] |  |  |  | IC50 [1]: 1 nM; EC50 ([2]; Homo sapiens, Monocyte): 66 nM |
| CC(C)(O)[C@H](F)CNC(=O)c1cnc(-c2ccc3cc(C#N)cnn23)cc1N[C@H]1C[C@H]2CNC[C@H]2C1 [Example 248, 6-(3-cyanopyrrolo[1,2-b]pyridazin-7-yl)-N-((R)-2-fluoro-3-hydroxy-3-methyl-butyl)-4-(((3aR,5r,6aS)-octahydrocyclopenta[c]pyrrol-5-yl)amino) nicotinamide] | 3 | 545 |  |  |
| CC(C)(O)[C@H](F)CNC(=O)c1cnc(-c2ccc3cc(C#N)cnn23)cc1Nc1cnn([C@H]2CCOC2)c1 [Example 237, 6-(3-cyanopyrrolo[1,2-b]pyridazin-7-yl)-N-((R)-2-fluoro-3-hydroxy-3-methylbutyl)-4-((1-((S)-tetrahydrofuran-3-yl)-1H-pyrazol-4-yl)amino) nicotinamide] | 1 | 23 |  |  |
| CC(C)(O)[C@H](F)CNC(=O)c1cnc(-c2ccc3cc(C#N)cnn23)cc1Nc1cnc(-c2cn[nH]c2)cn1 [Example 972, (R)-4-((5-(1H-pyrazol-4-yl)pyrazin-2-yl)amino)-6-(3-cyanopyrrolo[1,2-b]pyridazin-7-yl)-N-(2-fluoro-3-hydroxy-3-methylbutyl)nicotinamide] | < 1 |  |  | EC50 [2, 6]: 12 nM |
| N#Cc1cnn2c(-c3cc(NC45CCC(O)(CC4)CC5)c(C(=O)NCC(=O)N4CCCC4)cn3)ccc2c1 [Example 790, 6-(3-cyanopyrrolo[1,2-b]pyridazin-7-yl)-4-((4-hydroxybicyclo[2.2.2]octan-1-yl)amino)-N-(2-oxo-2-(pyrrolidin-1-yl)ethyl)nicotinamide] |  | 21 | < 1 |  |
| CC(C)(O)[C@H](F)CNC(=O)c1cnc(-c2ccc3cc(C#N)cnn23)cc1N[C@H]1C[C@@H]2C[C@H]1CN2 [Example 32, 4-(((1S,4S,5S)-2-azabicyclo[2.2.1]heptan-5-yl)amino)-6-(3-cyano-pyrrolo[1,2-b]pyridazin-7-yl)-N-((R)-2-fluoro-3-hydroxy-3-methylbutyl)nicotinamide] | 3 | > 10000 |  |  |
| COc1nccc(Nc2cc(-c3ccc4cc(C#N)cnn34)ncc2C(=O)NC[C@@H](F)C(C)(C)O)n1 [Example 844, (R)-6-(3-cyanopyrrolo[1,2-b]pyridazin-7-yl)-N-(2-fluoro-3-hydroxy-3-methylbutyl)-4-((2-methoxypyrimidin-4-yl)amino)nicotinamide] | 1 |  |  | EC50 [2, 6]: 70 nM |
| CC1(O)CCCC(Nc2cc(-c3ccc4cc(C#N)cnn34)ncc2C(=O)NC[C@@H](F)C(C)(C)O)C1 (single isomer, unassigned) [Example 528] |  | 65 | 1 |  |
| CNC(=O)c1cnc(-c2ccc3cc(C#N)cnn23)cc1NC1CCC(NC(=O)C(F)(F)F)CC1 (stereo not drawn) [Example 275, 6-(3-cyanopyrrolo[1,2-b]pyridazin-7-yl)-N-methyl-4-(((1r,4r)-4-(2,2,2-trifluoroacetamido)cyclohexyl)amino) nicotinamide] | 3 | 154 |  |  |
| CC(C)(O)[C@H](F)CNC(=O)c1cnc(-c2ccc3cc(C#N)cnn23)cc1NC1CC1CO (stereo partly drawn) [Example 303, 6-(3-cyanopyrrolo[1,2-b]pyridazin-7-yl)-N-((R)-2-fluoro-3-hydroxy-3-methylbutyl)-4-((2-(hydroxymethyl)cyclopropyl)amino)nicotinamide] | < 1 | 26 |  |  |
| COc1ncc(Nc2cc(-c3ccc4cc(C#N)cnn34)ncc2C(=O)NC[C@@H](F)C(C)(C)O)cn1 [Example 590, (R)-6-(3-cyanopyrrolo[1,2-b]pyridazin-7-yl)-N-(2-fluoro-3-hydroxy-3-methylbutyl)-4-((2-methoxypyrimidin-5-yl)amino)nicotinamide] |  | 38 | < 1 |  |
| CC(C)(O)[C@H](F)CNC(=O)c1cnc(-c2ccc3cc(C#N)cnn23)cc1N[C@H]1CCCN(S(C)(=O)=O)C1 [Example 257, 6-(3-cyanopyrrolo[1,2-b]pyridazin-7-yl)-N-((R)-2-fluoro-3-hydroxy-3-methylbutyl)-4-(((S)-1-(methylsulfonyl)piperidin-3-yl)amino)nicotinamide] | 1 | 129 |  |  |
